Laboratory results published in US9353087B2, “Inhibitors of Bruton's tyrosine kinase” (Biogen Idec MA Inc., priority 2012, dated 2016).
Like-named read-outs stand apart in the source and are kept apart here.

What was measured:
[1] = system: PLCγ2 phosphorylation in Ramos cells; experiment: BCR pathway activation: inhibition of phosphorylation of PLCγ2 in Ramos cells (electrochemiluminescence immunoassay); format: cell-based; details: Homo sapiens, 2 hours compound, 10 μg/mL anti-IgM for 5 minutes, R^2=0.90
Method: Protocol: One day before treatment, Ramos cells were plated at a density of 3×10^5 cells per well in 200 μl, of complete medium in a 96-well tissue culture filter plates (Millipore, Billerica, Mass.). On the day of treatment, used medium was removed by filtration and the cells re-suspended in 200 μL serum free medium containing serial compound dilutions and DMSO to 0.1%, then incubated for 2 hours at 37° C. Cells were stimulated for 5 minutes with 10 μg/mL goat anti-human IgM at 37° C. […] After washing with TBST, MSD read buffer was added and the luminescence was measured in an MSD SECTOR Imager 6000. Maximum response was determined as the average luminescence in wells containing stimulated cells treated with anti-IgM and DMSO. Minimal response was determined as the average luminescence in wells containing unstimulated cells treated with DMSO alone. The maximal and minimal values were used to normalize luminescence in compound treatment wells. The normalized values were plotted against compound concentration on a log scale then analyzed using Prizm software (GraphPad Software, Inc.). […]

[2] = target: T1, hERG (human ether-à-go-go-related gene) potassium channel (Homo sapiens, UniProt Q12809); experiment: FastPatch/QPatch hERG inhibition assay in HEK293 cells; format: cell-based; details: HEK293 cells stably transfected with hERG cDNA, QPatch HT, IC50 estimated from hERG inhibition data
T1 construct: host or cells: HEK293
Source text: The in vitro effects of provided compounds was investigated on the hERG (human ether-à-go-go-related gene) potassium channel current (a surrogate for IKr, the rapidly activating, delayed rectifier cardiac potassium current) expressed in human embryonic kidney (HEK293) cells stably transfected with hERG cDNA. Cells were placed in HEPES-buffered physiological saline solution in a glass-lined 96-well plate and loaded with appropriate amounts of test and control solutions for a duration of a 3-minute exposure at each concentration. Test compound was diluted in 0.3% DMSO. An automated parallel patch clamp system, QPatch HT (Sophion Bioscience A/S, Denmark), was used to evaluate at various concentrations (e.g., 10 μM). The IC50 values were estimated based on the hERG inhibition data. The study was performed at ChanTest (14656 Neo Parkway, Cleveland, Ohio). The QPatch screen is further described by Janzen and Bernasconi (eds.), High Throughput Screening, Methods and Protocols, Second Edition, vol. 565, chapter 10, pg. 209-223, 2009.

BTK = target: T2, BTK (Homo sapiens, UniProt Q06187); experiment: In vitro BTK kinase assay: BTK-POLYGAT-LS assay; format: biochemical; details: ATP 10 uM, polyGAT 100 nM, BTK 0.25 nM, 30 minutes
T2 construct: purchased Upstate 14-552
Method: In vitro BTK kinase assay: BTK-POLYGAT-LS ASSAY. The purpose of the BTK in vitro assay was to determine compound potency against BTK through the measurement of IC50. Compound inhibition was measured after monitoring the amount of phosphorylation of a fluorescein-labeled polyGAT peptide (Invitrogen PV3611) in the presence of active BTK enzyme (Upstate 14-552), ATP, and inhibitor. The BTK kinase reaction was done in a black 96 well plate (costar 3694). For a typical assay, a 24 uL aliquot of an ATP/peptide master mix (final concentration; ATP 10 uM, polyGAT 100 nM) in kinase buffer (10 mM Tris-HCl pH 7.5, 10 mM MgCl2, 200 uM […], 5 mM DTT, 0.01% Triton X-100, and 0.2 mg/ml casein) was added to each well. Next, 1 uL of a 4-fold, 40× compound titration in 100% DMSO solvent was added, followed by adding 15 uL of BTK enzyme mix in 1× kinase buffer (with a final concentration of 0.25 nM). The assay was incubated for 30 minutes before being stopped with 28 uL of a 50 mM EDTA solution. Aliquots (5 uL) of the kinase reaction were transferred to a low volume white 384 well plate (Corning 3674), and 5 uL of a 2× detection buffer (Invitrogen PV3574, with 4 nM Tb—PY20 antibody, Invitrogen PV3552) was added. […] Time resolved fluorescence (TRF) on Molecular Devices M5 (332 nm excitation; 488 nm emission; 518 nm fluorescein emission) was measured.

Human CD19+ B cells = experiment: Inhibition of BCR (anti-IgM)-induced human B cell proliferation; format: cell-based; details: human CD19+ B cells from different donors, 10 μg/ml anti-IgM, 72 hours, CellTiter-Glo, read-out: IC50, anti-IgM-induced B cell cellular metabolism (proliferation)
Method: In this context, cellular metabolism directly correlates with cellular activation and proliferation, and can also reflect relative cell survival during proliferation. […] The results are shown graphically in FIG. 6.
Protocol: Human B cells were isolated from peripheral blood mononuclear cells or unpurified buffy coats using Ficoll-Hypaque gradients (Amersham) and negatively selected by magnetic cell sorting (Human B Cell Isolation Kit II, Miltenyi Biotec). Target cell purity was determined by flow cytometry by staining for markers of B cells, T cells and monocytes (CD19, CD3, CD14, respectively; BD Biosciences). Data was collected on a FACsCaliber flow cytometer and analyzed using FloJo software (BD Biosciences). […] Negatively selected human B cells were stimulated with 10 μg/mL anti-IgM F(ab′)2 (Jackson ImmunoResearch) in 96 well plates. […] B cells were stimulated for 72 hr at 37° C., 5% CO2. Proliferation was measured using the CellTiter-Glo reagent (Promega), as measured on a luminometer. Mean values were plotted against maximum proliferation and IC50 values were determine using GraphPad Prism v5 software.

[3] = system: IL-6 expression by FcγR-activated primary human macrophages; experiment: FcγR activation of primary human macrophages: IL-6 expression; format: cell-based; details: Macrophage, human monocyte derived macrophages, plate-bound IgG
Source text: (§1) FcγR activation of primary human macrophages. Autoantibody and immune-complex mediated activation through FcγR can be modeled by activation of macrophages with immobilized IgG. Primary human macrophages derived from GM-CSF treated monocytes up-regulate activation markers such as CD80, CD86, MHC antigens and the FcγRIII receptor. Human monocyte derived macrophages can be activated by plate-bound purified human IgG. This stimulation crosslinks the FcγRIII receptor and induces the secretion of pro-inflammatory cytokines such as TNFα, IL-6, IL 1β and MCP-1.
(§2) Generally, macrophages were cultured in plates previously incubated with purified IgG then washed. […] Cell culture supernatants were analyzed by ELISA for the expression of TNFα and IL-6.
(§3) Protocol: Human monocytes were isolated from buffy coats of healthy donors and negatively selected by magnetic cell sorting (Monocyte Isolation Kit II, Miltenyi Biotec). Purified monocytes were cultured in standard media supplemented with low-IgG FBS and 100 ng/mL GM-CSF for 5-7 days to induce macrophage differentiation. […] Supernatants were collected after 4 hrs and 18 hrs and analyzed for TNFα and IL-6, respectively.

[4] = system: TNFα expression by FcγR-activated primary human macrophages; experiment: FcγR activation of primary human macrophages: TNFα expression; format: cell-based; details: Macrophage, human monocyte derived macrophages, plate-bound IgG
Source text: as §1, §2, §3

[5] = system: collagen induced arthritis (CIA) in female Lewis rats; experiment: Rat collagen-induced arthritis model; format: in vivo; details: oral gavage BID, therapeutic administration, read-out: Ankle histiopathology ED50
Source text: The collagen induced arthritis (CIA) model in female Lewis rats requires primary T and B cell immune responses to type II collagen (CII) immunization for the development of a severe inflammatory disease (see Goldschmidt T J, Holmdahl R. Cell Immunol. 154(1):240-8, 1994; Helfgott, S. M., et al; Clin. Immunol. Immunopathol. 31:403, 1984; Holmdahl R. et al., J Autoimmun. 7(6):739-52, 1994; and Stuart, J. M., et al., J. Exp. Med. 155:1, 1982). Clinical disease onsets after a secondary CII challenge and the disease progresses over the following eight days.
Generally, female Lewis rats were immunized with bovine collagen type II in incomplete Freund's adjuvant. […] Clinical severity of arthritis was assessed by caliper measurements of ankles taken every day beginning on […].
Detailed protocol: Female Lewis rats were immunized subcutaneously with bovine collagen type II (1:1 emulsion of 2 mg/ml bovine CII in 0.01 N acetic acid: Incomplete Freund's Adjuvant) at three sites of back skin. […] Clinical severity of CIA was assessed by caliper measurements of ankles taken every day beginning on Day 9. […] Baseline ankle caliper measurements for established disease animals was assessed on day 1 of therapeutic dosing and animals were randomly assigned to treatment groups after confirmation of clinically disease onset (0.2751-0.2755 in). […]

T1 sequence (Q12809 whole entry): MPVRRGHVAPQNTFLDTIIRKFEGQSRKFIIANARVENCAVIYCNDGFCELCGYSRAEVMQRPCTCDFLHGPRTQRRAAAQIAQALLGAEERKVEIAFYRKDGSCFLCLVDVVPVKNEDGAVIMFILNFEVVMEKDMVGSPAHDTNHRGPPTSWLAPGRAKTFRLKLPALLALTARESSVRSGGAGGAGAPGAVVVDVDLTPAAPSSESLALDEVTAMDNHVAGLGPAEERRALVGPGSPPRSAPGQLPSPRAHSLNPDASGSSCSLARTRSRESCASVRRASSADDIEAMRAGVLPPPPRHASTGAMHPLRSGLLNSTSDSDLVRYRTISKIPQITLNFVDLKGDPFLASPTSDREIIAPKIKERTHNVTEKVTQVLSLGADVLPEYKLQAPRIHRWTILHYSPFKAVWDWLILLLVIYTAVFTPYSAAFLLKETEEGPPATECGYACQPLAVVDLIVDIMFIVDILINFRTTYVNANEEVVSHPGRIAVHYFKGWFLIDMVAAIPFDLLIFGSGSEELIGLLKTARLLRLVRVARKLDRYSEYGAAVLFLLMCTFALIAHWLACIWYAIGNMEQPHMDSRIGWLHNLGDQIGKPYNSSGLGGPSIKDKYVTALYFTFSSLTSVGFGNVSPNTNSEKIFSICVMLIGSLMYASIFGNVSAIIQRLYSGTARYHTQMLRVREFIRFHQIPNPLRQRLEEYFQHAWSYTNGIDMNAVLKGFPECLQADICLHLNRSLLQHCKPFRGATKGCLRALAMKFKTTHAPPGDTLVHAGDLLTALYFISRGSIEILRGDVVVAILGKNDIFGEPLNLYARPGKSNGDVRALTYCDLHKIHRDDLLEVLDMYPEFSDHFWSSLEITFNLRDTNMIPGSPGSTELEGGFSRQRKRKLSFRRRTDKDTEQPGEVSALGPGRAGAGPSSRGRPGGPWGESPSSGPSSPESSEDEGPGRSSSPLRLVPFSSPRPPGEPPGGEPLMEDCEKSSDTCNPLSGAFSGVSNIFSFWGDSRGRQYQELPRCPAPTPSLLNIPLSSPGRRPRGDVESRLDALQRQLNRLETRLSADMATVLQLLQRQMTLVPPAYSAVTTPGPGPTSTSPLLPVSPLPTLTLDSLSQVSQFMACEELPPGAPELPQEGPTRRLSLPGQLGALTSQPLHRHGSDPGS
T2 sequence (Q06187 whole entry): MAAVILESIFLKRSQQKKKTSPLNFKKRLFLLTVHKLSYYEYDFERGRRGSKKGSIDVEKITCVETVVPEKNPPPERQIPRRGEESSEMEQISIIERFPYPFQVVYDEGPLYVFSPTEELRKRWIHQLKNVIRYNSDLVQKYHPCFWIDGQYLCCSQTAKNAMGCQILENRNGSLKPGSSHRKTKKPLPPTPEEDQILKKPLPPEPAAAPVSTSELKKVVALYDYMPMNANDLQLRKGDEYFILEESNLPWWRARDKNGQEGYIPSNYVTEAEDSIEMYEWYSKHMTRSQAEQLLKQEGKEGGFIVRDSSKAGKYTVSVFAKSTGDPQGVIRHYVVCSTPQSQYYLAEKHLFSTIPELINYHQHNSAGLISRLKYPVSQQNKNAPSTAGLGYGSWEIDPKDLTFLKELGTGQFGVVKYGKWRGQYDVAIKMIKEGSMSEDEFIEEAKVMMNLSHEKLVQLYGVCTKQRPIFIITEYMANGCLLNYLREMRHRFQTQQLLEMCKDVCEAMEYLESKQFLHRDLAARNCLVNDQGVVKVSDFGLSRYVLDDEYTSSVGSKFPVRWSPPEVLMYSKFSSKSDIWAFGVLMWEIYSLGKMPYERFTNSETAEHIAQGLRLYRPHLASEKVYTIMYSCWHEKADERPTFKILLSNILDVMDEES

Structure (SMILES): Nc1ncnc(N2CC[C@H](O)[C@@H](N3CCC[C@@H](Nc4cc(Cl)cc(C(F)(F)F)c4)C3=O)C2)c1F [Compound I]
- EC50 [1]: 0.15 µM
- IC50 [2]: 9.4 µM
- IC50 (BTK): 0.00197 µM
- IC50 (Human CD19+ B cells): 0.26 µM
- IC50 ([3]; ELISA (FIG. 7B), read-out: IC50 for inhibition of IL-6): 0.35 µM
- IC50 ([3]; supernatants after 18 hrs, ELISA, read-out: IC50, inhibition of IL-6 expression): 0.35 µM
- IC50 ([4]; ELISA (FIG. 7A), read-out: IC50 for inhibition of TNFα): 1.08 µM
- IC50 ([4]; supernatants after 4 hrs, ELISA, read-out: IC50, inhibition of TNFα expression): 1.1 µM
- ED50 [5]: 4.08 mg/kg
